Reference: patent US7186836B2 (priority 2002, dated 2007)

Target: α7 nAChR subtype (Rattus norvegicus, UniProt Q05941)
Format: binding
Conditions: read-out: KD of radioligand (saturation curves, one site model)

α7 nAChR subtype, sequence (Q05941 23-502 limits assumed): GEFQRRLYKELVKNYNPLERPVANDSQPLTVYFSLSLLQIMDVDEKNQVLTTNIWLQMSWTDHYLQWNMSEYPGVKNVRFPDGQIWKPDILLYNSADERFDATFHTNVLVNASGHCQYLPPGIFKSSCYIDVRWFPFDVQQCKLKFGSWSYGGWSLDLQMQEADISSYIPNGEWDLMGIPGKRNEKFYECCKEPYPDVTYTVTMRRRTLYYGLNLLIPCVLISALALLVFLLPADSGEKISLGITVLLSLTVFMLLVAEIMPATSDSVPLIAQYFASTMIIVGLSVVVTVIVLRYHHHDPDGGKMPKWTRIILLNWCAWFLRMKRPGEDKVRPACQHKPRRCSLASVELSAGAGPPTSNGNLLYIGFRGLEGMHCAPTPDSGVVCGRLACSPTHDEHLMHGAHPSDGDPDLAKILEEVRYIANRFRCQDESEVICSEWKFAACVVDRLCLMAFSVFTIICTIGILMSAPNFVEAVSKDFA

[^125I]-α-Bungarotoxin [[^125I]-α-BTX] showed a Kd of 1.67 nM.
